One may read the inhibition as the change of the read-out against control, counted positive when it falls.

The target of assay [1] is T1, human recombinant norepinephrine transporter (Homo sapiens, UniProt P23975).
T1 construct: expressed in transfected cells; host or cells: MDCK
Description: Norepinephrine transporter reuptake inhibition assay. It is filed as cell-based. Particulars: 100 nM; MDCK cells with human norepinephrine transporter; [3H]Norepinephrine uptake; read-out: Inhibition % at 100 nM NE reuptake. As for the experimental part:
Norepinephrine Transporter Reuptake Inhibition Assay
Norepinephrine transporter reuptake inhibition assay used the method described by Galli A. et al., J Exp Biol., 1995, 198, p 2197˜2212.
MDCK cells with stably expressed human recombinant norepinephrine transporter were plated one day. Test compounds were pre-incubated with cells (2×10^5/ml) in modified Tris-HEPES buffer pH 7.1 for 20 minutes at 25° C. and then they were incubated for additional 10 minutes after 25 nM of [^3H]Norepinephrine was added. A lysate was obtained from solubilized cells and the filtered lysate was counted to determine [^3H]Norepinephrine uptake. Reduction of [^3H]Norepinephrine uptake by 50 percent or more (≧50%) relative to 10 μM desipramine indicates significant inhibitory activity. Compounds were screened at 10, 1, 0.1, 0.01 and 0.001 μM to determine their IC50s.

In assay [2] the test system is mice. The experiment in a line: Forced swimming test in mice (FST). Particulars: Mus musculus, 0.5 h, 30ip, 30 min after administration, vs control group, read-out: Reduction % at 30ip (duration of immobility). The format is in vivo. As for the experimental part: Forced Swimming Test in Mice (FST)
The Forced swimming test is an animal model based on the rodent's behavioral repertoire for screening drugs with potential antidepressant activity. As in several other models used for this goal, an uncontrollable stress stimulus produces behavioral changes that are sensitive to antidepressant treatment.
The mice were intraperitoneally treated with the test compound with an injection volume of […]. The group treated with 30% PEG400 served as a control group. Thirty minutes following administration, mice were individually forced to swim in a transparent glass vessel (14 cm high, 11.5 cm in diameter) filled with 10 cm of water at 25° C. The total duration of immobility (second) was measured during the last 4 minutes of a single 6-min test session. Mice were considered immobile when they made no further attempts to escape other than the movements necessary to keep their heads above the water. The potent ability of the compounds was determined as percent value of reduction in the duration of immobility comparing to the control group.

Assay [3] concerns mice. Description: Acetic acid induced writhing test (AA writhing test). The format is in vivo. Particulars: 0.8% acetic acid i.p. 30 min later, vs control group. The source says: Specially the results of Marble burying test (MB) in mice as noted in Table 3 show the compounds of the invention are related to the treatment of anxiety. Acetic Acid Induced Writhing Test (AA Writhing Test)
The Acetic acid-induced writhing test is a well-established nociceptive test using a chemical stimulus. Although several animal models of nociceptive tests have been developed to examine and compare the anti-nociceptive effects of different drugs, the anti-nociceptive effects of antidepressants appear to be test-dependent. Indeed, the acetic acid-induced writhing test is more sensitive to antidepressants than other tests using thermal, mechanical or electrical stimuli.
The animals were subcutaneously treated with the test compound with an injection volume of 10 ml/kg. The group treated with 30% PEG400 or saline served as a control group. Thirty minutes later, the mice were intraperitoneally treated with 0.8% (v/v) acetic acid. Each mouse was then placed in a cage for individual observation. The writhing numbers for 10 minutes were counted. The writhe is operationally defined as a contraction of the abdomen followed by stretching of the hind limbs. The potent ability of the compounds was determined as percent value of reduction in the number of writhing comparing to the control group.

In assay [4] the test system is mice. Description: Marble burying test. The format is in vivo. As to conditions: 30 min after treatment, vs control group. The text has this:
The Marble burying test is a screening tool for putative anxiolytics. In this test, control mice naturally bury glass marbles in the cage bedding and the administration of anxiolytic compounds, including Diazepam, reduces the number of buried marbles. Positive compounds in the marble burying test including selective serotonin reuptake inhibitor may be especially beneficial to obsessive-compulsive disorder.
A group of mice was intraperitoneally treated with test compound dissolved in 30% PEG400 with an injection volume of 10 ml/kg. The group treated with only 30% PEG400 served as a control group. Thirty minutes after the treatment, the animals were individually placed in a polycarbonate cage which was same as used for animal housing with an open top located within a quiet room. Each cage consisted of ⅛ inch corn bedding 5 cm deep. Twenty four clean glass marbles (15 mm diameter) were evenly spaced in four rows of six on top of the bedding. Each mouse was left in the cage for 30 minutes and the number of marbles buried (buried more than ½ or ⅔) was counted. The potent ability of the compounds was determined as percent value of reduction in the number of marbles buried comparing to the control group.

Assay [5] concerns the target T2, human serotonin transporter (Homo sapiens, UniProt P31645).
T2 construct: expressed in transfected cells; host or cells: HEK-293
The experiment in a line: Serotonin transporter reuptake inhibition assay. As to conditions: HEK293; 100 nM; HEK-293 cells with human serotonin transporter; [3H]Serotonin uptake; read-out: Inhibition % at 100 nM 5-HT reuptake. The format is cell-based. As for the experimental part:
Serotonin Transporter Reuptake Inhibition Assay
The method to test the ability of compounds to inhibit transporters from reuptake of serotonin followed Gu H. et al., J Biol. Chem., 1994, 269, p […].
The recombinant HEK-293 cells with human serotonin transporter were plated. Test compounds were pre-incubated with cells (2×10^5/ml) in modified Tris-HEPES buffer pH 7.1 for 20 minutes at 25° C. and then they were incubated for additional 10 minutes after 65 nM of [^3H]Serotonin was added. Bound cells were filtered and counted to determine [^3H]Serotonin uptake. Reduction of [^3H]Serotonin uptake by 50 percent or more (≧50%) relative to 10 μM fluoxetine indicates significant inhibitory activity. Compounds were screened at 10, 1, 0.1, 0.01 and 0.001 μM for IC50s.

Assay [6] deals with T3, human recombinant dopamine transporter (Homo sapiens, UniProt Q01959).
T3 construct: expressed in transfected cells; host or cells: CHO-K1
The experiment in a line: Dopamine transporter reuptake inhibition assay. The format is cell-based. Particulars: 100 nM; CHO-K1 cells with human dopamine transporter; [3H]Dopamine uptake; read-out: Inhibition % at 100 nM DA reuptake. As to the method: Dopamine Transporter Reuptake Inhibition Assay
The assay followed the method modified from Pristupa Z. B. et al., Mol. Pharmacol., 1994, p 125˜135.
CHO-K1 cells with human recombinant dopamine transporter were plated. Test compounds were pre-incubated with cells (4×10^5/ml) in modified Tris-HEPES buffer pH 7.1 for 20 minutes at 25° C. and then they were incubated for additional 10 minutes after 50 nM of [^3H]Dopamine was added. A lysate is obtained from solubilized cells and counted to determine [^3H]Dopamine uptake. Reduction of [^3H]Dopamine uptake by 50 percent or more (≧50%) relative to 10 μM nomifensine indicates significant inhibitory activity. Compounds were tested at 10, 1, 0.1, 0.01 and 0.001 μM for IC50s.

T3 sequence (Q01959 whole entry): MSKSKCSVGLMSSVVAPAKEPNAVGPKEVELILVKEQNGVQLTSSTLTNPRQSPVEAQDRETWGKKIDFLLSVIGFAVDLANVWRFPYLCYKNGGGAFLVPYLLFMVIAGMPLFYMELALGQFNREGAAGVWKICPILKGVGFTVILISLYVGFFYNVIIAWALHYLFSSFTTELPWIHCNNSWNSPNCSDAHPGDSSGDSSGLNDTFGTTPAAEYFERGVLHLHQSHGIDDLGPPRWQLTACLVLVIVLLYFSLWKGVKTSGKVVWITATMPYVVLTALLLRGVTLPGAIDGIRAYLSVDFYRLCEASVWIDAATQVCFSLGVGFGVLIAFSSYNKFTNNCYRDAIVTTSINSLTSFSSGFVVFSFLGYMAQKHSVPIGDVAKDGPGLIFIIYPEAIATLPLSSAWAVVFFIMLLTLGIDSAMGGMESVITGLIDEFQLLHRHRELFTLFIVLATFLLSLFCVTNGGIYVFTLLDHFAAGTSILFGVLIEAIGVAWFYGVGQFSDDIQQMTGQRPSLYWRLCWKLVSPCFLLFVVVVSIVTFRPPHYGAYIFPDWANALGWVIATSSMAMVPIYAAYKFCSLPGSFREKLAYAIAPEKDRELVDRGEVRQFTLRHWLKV
T1 sequence (P23975 whole entry): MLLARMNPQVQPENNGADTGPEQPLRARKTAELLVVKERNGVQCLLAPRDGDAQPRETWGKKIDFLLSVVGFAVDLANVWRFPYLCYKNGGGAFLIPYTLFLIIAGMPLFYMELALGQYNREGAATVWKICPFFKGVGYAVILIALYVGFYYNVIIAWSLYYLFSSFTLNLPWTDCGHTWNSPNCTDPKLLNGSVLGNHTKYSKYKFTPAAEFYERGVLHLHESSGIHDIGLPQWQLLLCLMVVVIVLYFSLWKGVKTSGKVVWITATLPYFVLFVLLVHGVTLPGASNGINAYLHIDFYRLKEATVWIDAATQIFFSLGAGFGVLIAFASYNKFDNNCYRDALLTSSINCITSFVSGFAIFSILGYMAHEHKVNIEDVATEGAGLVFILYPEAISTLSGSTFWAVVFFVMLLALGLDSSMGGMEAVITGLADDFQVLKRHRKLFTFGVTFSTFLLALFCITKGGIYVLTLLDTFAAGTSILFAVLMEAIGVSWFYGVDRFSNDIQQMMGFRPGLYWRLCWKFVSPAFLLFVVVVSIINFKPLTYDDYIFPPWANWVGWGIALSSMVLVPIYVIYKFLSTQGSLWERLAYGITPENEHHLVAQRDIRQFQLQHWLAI
T2 sequence (P31645 whole entry): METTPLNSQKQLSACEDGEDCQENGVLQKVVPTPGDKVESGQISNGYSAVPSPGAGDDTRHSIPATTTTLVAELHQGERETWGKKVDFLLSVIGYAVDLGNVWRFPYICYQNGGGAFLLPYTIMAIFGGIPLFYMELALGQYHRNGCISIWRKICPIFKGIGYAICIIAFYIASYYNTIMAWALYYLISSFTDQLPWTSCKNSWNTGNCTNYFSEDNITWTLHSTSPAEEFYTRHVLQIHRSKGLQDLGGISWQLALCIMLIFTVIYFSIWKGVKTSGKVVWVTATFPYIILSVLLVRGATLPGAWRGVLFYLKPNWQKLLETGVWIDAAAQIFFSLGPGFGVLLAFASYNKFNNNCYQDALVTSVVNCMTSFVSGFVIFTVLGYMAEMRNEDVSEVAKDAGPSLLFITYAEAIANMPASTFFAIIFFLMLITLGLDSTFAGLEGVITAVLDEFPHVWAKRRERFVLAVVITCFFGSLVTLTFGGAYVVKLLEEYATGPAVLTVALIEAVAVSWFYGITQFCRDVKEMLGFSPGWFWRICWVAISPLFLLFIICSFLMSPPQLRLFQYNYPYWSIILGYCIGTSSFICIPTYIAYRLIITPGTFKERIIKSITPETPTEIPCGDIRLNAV

For `c1ccc2cc([C@H]([C@H]3CCCNC3)n3ncnn3)ccc2c1` [Example 2, (3S)-3-[(S)-naphthalen-2-yl(2H-tetrazol-2-yl)methyl]piperidine], the inhibition at 0.1 µM turned out to be 85% in assay [1], 98% in assay [5] and 85% in assay [6]. Moreover, the inhibition in vivo at 30 mg/kg in the assay on mice [2] amounted to 37.5%. The “Reduction % (number of writhing) at 10sc” value with mice [3] (10sc) is 60.6% (at 10sc). Moreover, the “Reduction % (number of marbles buried) at 20ip” value in the assay on mice [4] (20ip) was 67.5% (at 20ip).
`Fc1ccc2cc([C@H]([C@H]3CCCNC3)n3ncnn3)ccc2c1` [Example 71]: the inhibition at 0.1 µM in assay [1] stood at 46%; in assay [5] it was 92%; in assay [6], 54%. For the same compound, the inhibition in vivo at 30 mg/kg in the assay with mice [2] turned out to be 54%. Further, the “Reduction % at 30sc (number of writhing)” value with mice [3] was 48.7%. Further, the “Reduction % at 30ip (number of marbles buried)” value (“Reduction % at 30ip” for short) in the assay on mice [4] was determined as 86.0%.
Consider `Cc1nnn([C@@H](c2ccc3ccccc3c2)[C@@H]2CCCNC2)n1` [Example 12, (3R)-3-[(R)-(5-methyl-2H-tetrazol-2-yl)(naphthalen-2-yl)methyl]piperidine], for which the inhibition at 0.1 µM in assay [1] came out at 90%; in assay [5], 83%; in assay [6] it was 92%. Besides, in the assay on mice [2], the inhibition in vivo at 30 mg/kg was determined as 9.7%. Moreover, in the assay with mice [3], the “Reduction % at 30sc (number of writhing)” value amounted to 50.5%. Also, the “Reduction % at 30ip” value with mice [4] is reported as 91.8%.
Regarding `Fc1ccc2cc([C@@H]([C@@H]3CCCNC3)n3ncnn3)ccc2c1` [Example 83, (3R)-3-[(R)-(6-fluoronaphthalen-2-yl)(2H-tetrazol-2-yl)methyl]piperidine], the inhibition at 0.1 µM in assay [1] was found to be 78%; in assay [5], 96%; in assay [6] it was 66%. Further, the inhibition in vivo at 30 mg/kg in the assay on mice [2] was found to be 51.8%. Further, the “Reduction % at 30sc (number of writhing)” value in the assay with mice [3] amounted to 84.1%. In addition, the “Reduction % at 30ip” value in the assay on mice [4] was 83.7%.
Take `c1ccc2cc([C@@H]([C@@H]3CCCNC3)n3ncnn3)ccc2c1` [Example 1, (3R)-3-[(R)-naphthalen-2-yl(2H-tetrazol-2-yl)methyl]piperidine]: the inhibition at 0.1 µM in assay [1] is 94%; in assay [5], 81%; in assay [6] it was 88%. Also, the inhibition in vivo at 30 mg/kg in the assay with mice [2] was found to be 56.3%. Moreover, the “Reduction % at 30sc (number of writhing)” value in the assay with mice [3] came to 70.8%. Also, in the assay with mice [4] (10ip), the “Reduction % (number of marbles buried) at 10ip” value is recorded as 57.5% (at 10ip).

These data come from patent US8513285B2, “3 or 4-substituted piperidine compounds” (SK Biopharmaceuticals Co., Ltd., priority 2008, dated 2013).
